The results in this text go back to PMC5983823, “Screening of Natural Product Derivatives Identifies Two Structurally Related Flavonoids as Potent Quorum Sensing Inhibitors against Gram-Negative Bacteria” (International Journal of Molecular Sciences, 2018).

Each structure is given as a SMILES string. Read-outs that look alike come from different tables or passages of the source.

A word on the inhibition: it is the change of the read-out against control, counted positive when it falls. One may read the IC50 as the midpoint of a concentration-inhibition curve.

The subject of data set [1] is C. violaceum ATCC 31532. The data set is described as follows: Violacein extraction assay (QS-mediated violacein production). Type of data set: cell-based, Chromobacterium violaceum. Conditions: for inhibition at 400 µM: ATCC31532, 24 h, read-out: Inhibition-% of violacein production. The method, then:
(§1) The initial screening of compound library was conducted using two strains of C. violaceum as model bacterium, and two assays (violacein extraction and resazurin staining) in parallel as recently optimized in [26]. For the screening assays, overnight cultures of C. violaceum were diluted in LB broth supplemented with yeast extract (LBY) (0.1% w/v, Sigma Aldrich, St. Louis, MO, USA). Culture of C. violaceum CV026 was further supplemented with 0.5 µM N-(β-ketocaproyl)-L-Homoserine lactone (3-O-C6-(L)-HSL, Cayman chemicals, Ann Arbor, MI, USA) to induce the violacein production. Bacteria (10^6 CFU/mL) was exposed to compounds (400 µM) in a total volume of 200 µL in 96-microtiter well plates (Nunc, Roskilde, Denmark), and incubated at 27 °C, with shaking at 200 rpm for 24 h. DMSO was added in untreated control wells and bacteria-free wells with only LBY were included controls. Additionally, autoinducer-free wells containing only bacteria were included in C. violaceum CV026 plates. Plates were prepared in duplicates. Quercetin dihydrate (Carl Roth GmbH, Karlsruhe, Germany) at 400 µM was used as positive control in violacein extraction assay, and azithromycin (Cayman chemicals, Ann Arbor, MI, USA) at 10 µM in viability assay. Both control compounds were prepared in DMSO. DMSO concentration was 2.5% throughout the experiments.
(§2) After incubation period of 24 h, plates were centrifuged (Allegra™ X-12R Benchtop centrifuge, Beckman Coulter Inc., Fullerton, CA, USA) at 3000 rpm for 10 min to precipitate the violacein. Supernatants were discarded from the wells by pipetting, and pellets were re-suspended in 200 μL of 96% ethanol by scraping and mixing followed by centrifugation (3000 rpm, 10 min). Thereafter, 100 μL of supernatants were transferred to sterile 96-microtiter well plates, and violacein was quantified by reading the optical density at 595 nm using Varioskan Flash. Inhibition of violacein production was expressed as inhibition percentages of the untreated biofilms (Equation (1)):Inhibition-% = [(untreated control OD595 − sample OD595)/(untreated control OD595 − media control OD595)] × 100%(1) in which untreated control = C. violaceum + DMSO, media control = LBY, and sample = C. violaceum treated with a compound. Later on, violacein extraction assay was also utilized for the determination of half inhibitory concentrations of the compounds.

In the next data set the test system is C. violaceum CV026. The experiment in a line: Violacein extraction assay (QS-mediated violacein production), mutant strain with exogenous autoinducer. Type of data set: cell-based, Chromobacterium violaceum. Conditions: for inhibition at 400 µM: Chromobacterium violaceum, CV026, 24 h, read-out: Inhibition-% of violacein production. The method, then: as §1, §2

Data set [2] concerns C. violaceum ATCC 31532. The experiment in a line: Violacein extraction assay (QS-mediated violacein production). In kind it is cell-based. Conditions: Chromobacterium violaceum.
The subject of data set [3] is mouse monocyte macrophage (RAW 264.7) cells. The experiment in a line: Cytotoxicity testing (CellTiter Glo). In kind it is cell-based. Conditions: 200 µM, 24 h exposure, positive control. As to the method: (§3) Human lung (HL) epithelial cells were grown in RPMI 1640 (Biowhittaker, Lonza, Viewers, Bornem, Belgium) supplemented with 10% inactivated fetal bovine serum (FBS), 2 mM L-glutamine and gentamycin 20 µg/mL, and mouse monocyte macrophage RAW 264.7 cells in DMEM medium supplemented with 10% FBS and 20 µg/mL gentamycin. Cells (3 × 10^5 cells/mL) were seeded into 96-microtiter well plates (Cellstar TC, Greiner Bio-One GmbH, Frickenhausen, Germany), 200 µL per well, and incubated at 37 °C in 5% CO2 24 h before exposure to the compounds. After the incubation, culture medium was discarded, the wells were washed with PBS, and the compound dilutions prepared in culture media were added as triplicates to a final volume of 200 µL. Usnic acid (200 µM, Sigma Aldrich, St. Louis, MO, USA) was included as positive control and DMSO (1%) as solvent control. Plates were incubated for additional 24 h. At the end of 24 h, media was removed, wells were washed twice with PBS and 100 µL of PBS was added. CellTiter Glo® reagent (Promega, Madison, WI, USA) was prepared according to manufacturer’s instructions, and 100 µL was added to the wells. The plates were shaken for two minutes and equilibrated at room temperature for 10 min prior to measuring the luminescence using Varioskan LUX multimode plate reader (Thermo Scientific, Vantaa, Finland). Inhibition of cell viability was calculated in relation to the untreated cells.
In general terms: In ATP-based viability assays light output follows the ATP content of the culture.

For data set [4], the system named is human lung (HL) epithelial cells. The experiment in a line: Cytotoxicity testing (CellTiter Glo). The following applies: 200 µM, 24 h exposure, positive control. In kind it is cell-based. The method, then:
as §3

[5] abbreviates: Chromobacterium violaceum, primary screening, 400 µM, 24 h, C. violaceum ATCC 31532.
The mark [6] stands for this setting: ATCC31532, 40 µM, C. violaceum ATCC 31532, mean ± SD of three independent tests, read-out: Inhibition-% of violacein production.
Where [7] appears, read: ATCC31532, read-out: Inhibition-% of violacein production.

For `COc1ccc(/C=C/C(=O)c2ccc(O)cc2C)cc1` [Compound 2372, (2E)-1-(4-hydroxy-2-methylphenyl)-3-(4-methoxyphenyl)prop-2-en-1-one], the inhibition at 400 µM in the data set on C. violaceum ATCC 31532 [1] (setting [5]) was determined as 18.3%; in the data set with C. violaceum CV026 it was 91.1%.

Consider `O=C(CSc1nc2c(=O)[nH]cnc2n1CC1CCCO1)Nc1ccc(F)c(Cl)c1` (centres unmarked) [Compound 1905, N-(3-chloro-4-fluorophenyl)-2-[6-oxo-9-(oxolan-2-ylmethyl)hydropurin-8-ylthio] acetamide], for which the values for the inhibition at 400 µM with C. violaceum ATCC 31532 [1] (setting [5]) and in the data set with C. violaceum CV026 were 4.7% and 107%, respectively.

In the case of `Cc1cc(C(=O)NC(Cc2ccccc2)C(=O)O)c(C)o1` (centres unmarked) [Compound 1214, 2-[(2,5-dimethyl(3-furyl))carbonylamino]-3-phenylpropanoic acid], the inhibition at 400 µM in the data set on C. violaceum CV026 was found to be 103%.

For the compound `CCOc1ccc(C2NCCc3c2[nH]c2ccccc32)cc1` (centres unmarked) [Compound 2666, 4-ethoxy-1-(1,2,3,4-tetrahydrobeta-carbolinyl)benzene], the inhibition at 400 µM in the data set on C. violaceum CV026 worked out at 90.8%.

Regarding `Cc1sc(N)nc1-c1c[nH]c2ccccc12` [Compound 2307, 4-indol-3-yl-5-methyl-1,3-thiazole-2-ylamine], the values for the inhibition at 400 µM in the data set with C. violaceum ATCC 31532 [1] (setting [5]) and in the data set on C. violaceum CV026 were 98.8% and 98.6%, respectively. Besides, the inhibition at 40 µM in the data set on C. violaceum ATCC 31532 [2] (setting [6]) was 76.1 ± 3.3%.

Consider `C1COCCN1.COC(=O)C1=C(C)NC(S)=C(C#N)C1c1cc(OC)c(OC)c(OC)c1` (centres unmarked) [Compound 1016, methyl 5-cyano-2-methyl-6-sulfanyl-4-(3,4,5-trimethoxyphenyl)-1,4-dihydropyridine-3-carboxylate, morpholine], for which the “Inhibition-% of violacein production” value with C. violaceum ATCC 31532 [1] (primary screening, 400 µM, 24 h, C. violaceum ATCC 31532) amounted to 34.1%; in the data set with C. violaceum CV026 (primary screening, 400 µM, 24 h, C. violaceum CV026) it was 97.5%.

`CCOc1ccc2oc(=O)cc(CN3CCNCC3)c2c1` [Compound 1852, 6-ethoxy-4-(piperazinylmethyl)chromen-2-one]: the inhibition at 400 µM with C. violaceum ATCC 31532 [1] (setting [5]) came to 29.7%; in the data set with C. violaceum CV026 it was 95.2%.

Consider `O=C(NCCCCCCNC(=O)/C(=C\c1ccccc1)NC(=O)c1ccccc1)/C(=C/c1ccccc1)NC(=O)c1ccccc1` [Compound 3, (2E)-N-{6-[(2Z)-3-phenyl-2-(phenylcarbonylamino)prop-2-enoylamino]hexyl}-3-phenyl-2-(phenylcarbonylamino)prop-2-enamide], for which the inhibition at 400 µM in the data set with C. violaceum ATCC 31532 [1] (setting [5]) worked out at 41%; in the data set with C. violaceum CV026, 41.3%.

In the case of `O=c1c(O)c(-c2ccc(O)c(O)c2)oc2cc(O)cc(O)c12` [Que, quercetin, reference compound], the inhibition at 400 µM was determined as 99.7% in the data set on C. violaceum ATCC 31532 [1] (Chromobacterium violaceum) and 98.9% with C. violaceum CV026. For the same compound, the IC50 in the data set with C. violaceum ATCC 31532 [1] (Chromobacterium violaceum, ATCC31532, read-out: IC50 of violacein production) was found to be 3.1 µM. Besides, the inhibition at 40 µM in the data set with C. violaceum ATCC 31532 [2] (setting [7]) was 91.8 ± 2.3%.

For `O=c1cc(C(Cl)(Cl)Cl)oc2ccccc12` [Compound 2712, 2-(trichloromethyl)chromen-4-one], the inhibition at 400 µM in the data set on C. violaceum CV026 stood at 106%.

Consider `O=C(CCc1cccc(F)c1)NC(CO)C(O)c1ccccc1` (centres unmarked) [Compound 2916, 3-(3-fluorophenyl)-N-[2-hydroxy-1-(hydroxymethyl)-2-phenylethyl]propanamide], for which the inhibition at 400 µM turned out to be 19.7% in the data set with C. violaceum ATCC 31532 [1] (setting [5]) and 98.3% in the data set with C. violaceum CV026.

As for `Nc1ccn(C2OC(CO)C3OP(=O)(O)OC32)c(=O)n1` (centres unmarked) [Compound 144, 8-(4-amino-2-oxohydropyrimidinyl)-3-hydroxy-6-(hydroxymethyl)-2,4,7-trioxa-3-phosphabicyclo[3.3.0]octan-3-one], the inhibition at 400 µM in the data set on C. violaceum ATCC 31532 [1] (setting [5]) was 94.7%; in the data set with C. violaceum CV026, 97.2%. Also, the inhibition at 40 µM in the data set on C. violaceum ATCC 31532 [2] (setting [6]) was 0%.

In the case of `CC(=O)c1c(O)c(C)c(O)c2c1OC1=CC(=O)C(C(C)=O)C(=O)C12C` (centres unmarked) [Usnic acid, reference compound], the “Inhibition-% of cell viability” value is given as 98.5 ± 0.6% in data set [3] and 90.0 ± 4.7% in data set [4].

On to `CC(C)COc1ccc(C(=O)N/C(=C\c2ccccc2)C(=O)NCCNC(=O)/C(=C\c2ccccc2)NC(=O)c2ccc(OCC(C)C)cc2)cc1` [Compound 2, (2E)-N-[2-((2Z)-2-{[4-(2-methylpropoxy)phenyl]carbonylamino}-3-phenylprop-2-enoylamino)ethyl]-2-{[4-(2-methylpropoxy)phenyl]carbonylamino}-3-phenylprop-2-en amide], for which the inhibition at 400 µM in the data set with C. violaceum ATCC 31532 [1] (setting [5]) stood at 19%.

Consider `Cc1ccc2c(C)c(-c3ccc(Cl)cc3)c(=O)oc2c1` [Compound 1352], for which the figures for the inhibition at 400 µM with C. violaceum ATCC 31532 [1] (setting [5]) and with C. violaceum CV026 were 18.8% and 99.6%, respectively.

With `CCn1cnc2cc(NC(=O)c3cc(OC)c(OC)c(OC)c3)ccc2c1=O` [Compound 1508, N-(3-ethyl-4-oxo(3-hydroquinazolin-7-yl))(3,4,5-trimethoxyphenyl)carboxamide], the inhibition at 400 µM with C. violaceum CV026 is 93.4%.

For `C=C(CBr)C1Cc2c(ccc3c2OC2COc4cc(OC)c(OC)cc4C2C3=O)O1` (centres unmarked) [Compound 341, 2-[1-(bromomethyl)vinyl]-8,9-dimethoxy-1,2-dihydrochromano[3,4-b]furano[2,3-h]chroman-6-one], the inhibition at 400 µM was 93.4% in the data set with C. violaceum ATCC 31532 [1] (Chromobacterium violaceum) and 95.2% in the data set on C. violaceum CV026. In addition, the inhibition at 40 µM in the data set on C. violaceum ATCC 31532 [2] (setting [7]) was found to be 26.9 ± 7.7%.

As for `COc1cc([C@H]2OC[C@@H]3C(c4ccc(OC5OC(COC6OC(C)C(O)C(O)C6O)C(O)C(O)C5O)c(OC)c4)OC[C@H]23)ccc1O` (stereo partly drawn) [Compound 1698, 2-[(6-{4-[(6S,1R,5R)-6-(4-hydroxy-3-methoxyphenyl)-3,7-dioxabicyclo[3.3.0]oct-2-yl]-2-methoxyphenoxy}-3,4,5-trihydroxy(2H-3,4,5,6-tetrahydropyran-2-yl))methoxy]-6-methyl-2H-3,4,5,6-tetrahydropyran-3,4,5-triol], the inhibition at 400 µM with C. violaceum ATCC 31532 [1] (setting [5]) came out at 91.3%; in the data set with C. violaceum CV026, 96.1%. In the data set with C. violaceum ATCC 31532 [2] (setting [6]), the inhibition at 40 µM came to 2.6 ± 4.6%.

On to `CCN(CC)C(=O)c1cc(=O)n(CC(=O)Nc2c(C)cc(C)cc2C)c2ccccc12` [Compound 1406, 2-[4-(N,N-diethylcarbamoyl)-2-oxohydroquinolyl]-N-(2,4,6-trimethylphenyl)acetamide], for which the inhibition at 400 µM turned out to be 40% in the data set with C. violaceum ATCC 31532 [1] (setting [5]) and 93.3% with C. violaceum CV026.

As to `COc1ccccc1-c1c(C(F)(F)F)oc2cc(OC(=O)c3ccccc3F)ccc2c1=O` [Compound 2909, 3-(2-methoxyphenyl)-4-oxo-2-(trifluoromethyl)chromen-7-yl 2-fluorobenzoate], the inhibition at 400 µM in the data set on C. violaceum ATCC 31532 [1] (setting [5]) was 12.1%; in the data set on C. violaceum CV026 it was 99.9%.

For `COc1ccc2c(c1)c(CC(=O)NCCCN1CCCCC1)c(C)n2C(=O)c1ccc(Cl)cc1` [Compound 712, 2-{1-[(4-chlorophenyl)carbonyl]-5-methoxy-2-methylindol-3-yl}-N-(3-piperidylpropyl)acetamide], the inhibition at 400 µM with C. violaceum CV026 turned out to be 94.3%.

In the case of `NC(=O)CC1CCCCN1` (centres unmarked) [Compound 2584, 2-(2-piperidyl)acetamide], the inhibition at 400 µM came to 20.5% with C. violaceum ATCC 31532 [1] (setting [5]) and 106% with C. violaceum CV026.
